Converted amounts (≈) assume the structure as drawn.
Key:
Format in all cases: functional
[1] = system: Pseudomonas aeruginosa; assay: Antimicrobial activity against Pseudomonas aeruginosa OC 12070 expressing 11 fold elevated mexX expression and 10 fold elevated mexY expression by broth macrodilution method
[2] = system: Pseudomonas aeruginosa; assay: Antimicrobial activity against Pseudomonas aeruginosa OC 12070 expressing 27 fold elevated mexX expression and 49 fold elevated mexY expression by broth macrodilution method
[3] = system: Pseudomonas aeruginosa; assay: Antimicrobial activity against Pseudomonas aeruginosa OC 12070 expressing 7 fold elevated AmpC expression by broth macrodilution method
[4] = system: Pseudomonas aeruginosa; assay: Antimicrobial activity against Pseudomonas aeruginosa OC 12070 expressing 5 fold elevated AmpC expression by broth macrodilution method
[5] = system: Pseudomonas aeruginosa; assay: Antimicrobial activity against Pseudomonas aeruginosa OC 12070 expressing 10 fold elevated mexX expression and 23 fold elevated mexY expression by broth macrodilution method
[6] = system: Pseudomonas aeruginosa; assay: Antimicrobial activity against Pseudomonas aeruginosa OC 12070 expressing 151 fold elevated mexX expression and 127 fold elevated mexY expression by broth macrodilution method
[7] = system: Pseudomonas aeruginosa; assay: Antimicrobial activity against Pseudomonas aeruginosa OC 12070 expressing 12 fold elevated mexX expression and 25 fold elevated mexY expression by broth macrodilution method
[8] = system: Pseudomonas aeruginosa; assay: Antimicrobial activity against Pseudomonas aeruginosa OC 12070 expressing 107 fold elevated mexX expression and 155 fold elevated mexY expression by broth macrodilution method
[9] = system: Pseudomonas aeruginosa; assay: Antimicrobial activity against Pseudomonas aeruginosa OC 12070 expressing 36 fold elevated mexX expression and 39 fold elevated mexY expression by broth macrodilution method
[10] = system: Pseudomonas aeruginosa; assay: Antimicrobial activity against Pseudomonas aeruginosa OC 12070 expressing 65 fold elevated mexX expression and 106 fold elevated mexY expression by broth macrodilution method
[11] = system: Pseudomonas aeruginosa; assay: Antimicrobial activity against wild type Pseudomonas aeruginosa
[12] = system: Pseudomonas aeruginosa; assay: Antimicrobial activity against wild type Pseudomonas aeruginosa PAO1 by broth macrodilution method
[13] = system: Pseudomonas aeruginosa; assay: Antimicrobial activity against Pseudomonas aeruginosa OC 4351 by broth macrodilution method
[14] = system: Pseudomonas aeruginosa; assay: Antimicrobial activity against Pseudomonas aeruginosa OC 11053 by broth macrodilution method
[15] = system: Pseudomonas aeruginosa; assay: Antimicrobial activity against Pseudomonas aeruginosa OC 11492 by broth macrodilution method
[16] = system: Pseudomonas aeruginosa; assay: Antimicrobial activity against Pseudomonas aeruginosa OC 12070 by broth macrodilution method
[17] = system: Pseudomonas aeruginosa; assay: Antimicrobial activity against Pseudomonas aeruginosa OC 11678 by broth macrodilution method
[18] = system: Pseudomonas aeruginosa; assay: Antimicrobial activity against Pseudomonas aeruginosa OC 12261 by broth macrodilution method
[19] = system: Pseudomonas aeruginosa; assay: Antimicrobial activity against wild type Pseudomonas aeruginosa ATCC 27853 by broth macrodilution method
[20] = system: Pseudomonas aeruginosa; assay: Antimicrobial activity against Pseudomonas aeruginosa OC 11678 expressing 33 fold elevated AmpC expression by broth macrodilution method
[21] = system: Pseudomonas aeruginosa; assay: Antimicrobial activity against Pseudomonas aeruginosa OC 11678 expressing 34 fold elevated AmpC expression by broth macrodilution method
[22] = system: Pseudomonas aeruginosa; assay: Antimicrobial activity against Pseudomonas aeruginosa OC 11678 expressing 31 fold elevated AmpC expression by broth macrodilution method
[23] = system: Pseudomonas aeruginosa; assay: Antimicrobial activity against Pseudomonas aeruginosa OC 11678 expressing 30 fold elevated AmpC expression by broth macrodilution method
[24] = system: Pseudomonas aeruginosa; assay: Antimicrobial activity against Pseudomonas aeruginosa OC 11678 expressing 40 fold elevated AmpC expression by broth macrodilution method
[25] = system: Pseudomonas aeruginosa; assay: Antimicrobial activity against Pseudomonas aeruginosa OC 11678 expressing 36 fold elevated AmpC expression by broth macrodilution method
[26] = system: Pseudomonas aeruginosa; assay: Antimicrobial activity against Pseudomonas aeruginosa OC 11678 expressing 32 fold elevated AmpC expression by broth macrodilution method
[27] = system: Pseudomonas aeruginosa; assay: Antimicrobial activity against Pseudomonas aeruginosa OC 11678 expressing 29 fold elevated AmpC expression by broth macrodilution method
[28] = system: Pseudomonas aeruginosa; assay: Antimicrobial activity against Pseudomonas aeruginosa OC 11678 expressing 15 fold elevated AmpC expression by broth macrodilution method
[29] = system: Pseudomonas aeruginosa; assay: Antimicrobial activity against Pseudomonas aeruginosa OC 11678 expressing 9 fold elevated AmpC expression by broth macrodilution method
[30] = system: Pseudomonas aeruginosa; assay: microbe, parasite or virus in culture; conditions: OC 11678
Description: Antimicrobial activity against Pseudomonas aeruginosa OC 11678 expressing 27 fold elevated mexX expression and 16 fold elevated mexY expression by broth macrodilution method

[31] = system: Pseudomonas aeruginosa; assay: Antimicrobial activity against Pseudomonas aeruginosa OC 11678 expressing 31 fold elevated mexX expression and 17 fold elevated mexY expression by broth macrodilution method
[32] = system: Pseudomonas aeruginosa; assay: Antimicrobial activity against Pseudomonas aeruginosa OC 11678 expressing 71 fold elevated mexX expression and 43 fold elevated mexY expression by broth macrodilution method
[33] = system: Pseudomonas aeruginosa; assay: Antimicrobial activity against Pseudomonas aeruginosa OC 12070 expressing 37 fold elevated AmpC expression by broth macrodilution method
[34] = system: Pseudomonas aeruginosa; assay: Antimicrobial activity against Pseudomonas aeruginosa OC 12070 expressing 11 fold elevated AmpC expression by broth macrodilution method
[35] = system: Pseudomonas aeruginosa; assay: Antimicrobial activity against Pseudomonas aeruginosa OC 12070 expressing 8 fold elevated AmpC expression by broth macrodilution method

SMILES | MIC [1] [µg/mL] | MIC [2] [µg/mL] | MIC [3] [µg/mL] | MIC [4] [µg/mL] | MIC [5] [µg/mL] | MIC [6] [µg/mL] | MIC [7] [µg/mL] | MIC [8] [µg/mL] | MIC [9] [µg/mL] | MIC [10] [µg/mL] | MIC50 [11] [µg/mL] | MIC [12] [µg/mL] | MIC [13] [µg/mL] | MIC [14] [µg/mL] | MIC [15] [µg/mL] | MIC [16] [µg/mL] | MIC [17] [µg/mL] | MIC [18] [µg/mL] | MIC [19] [µg/mL] | MIC [20] [µg/mL] | further results
CC(C)(O/N=C(\C(=O)N[C@@H]1C(=O)N2C(C(=O)[O-])=C(C[n+]3ccccc3)CS[C@H]12)c1csc(N)n1)C(=O)O [CEFTAZIDIME] | 2 (≈ 3.66 µM) | 4 (≈ 7.32 µM) | 64 (≈ 117 µM) | 16 (≈ 29.3 µM) | 8 (≈ 14.6 µM) | 8 (≈ 14.6 µM) | 4 (≈ 7.32 µM) | 16 (≈ 29.3 µM) | 4 (≈ 7.32 µM) | 16 (≈ 29.3 µM) | 2 (≈ 3.66 µM) | 1 (≈ 1.83 µM) | 1 (≈ 1.83 µM) | 1 (≈ 1.83 µM) | 2 (≈ 3.66 µM) | 2 (≈ 3.66 µM) | 4 (≈ 7.32 µM) | 4 (≈ 7.32 µM) | 2 (≈ 3.66 µM) | 128 (≈ 234 µM) | MIC [21]: 128 µg/mL (≈ 234 µM); MIC [22]: 128 µg/mL (≈ 234 µM); MIC [23]: 128 µg/mL (≈ 234 µM); MIC [24]: 128 µg/mL (≈ 234 µM); MIC [25]: 64 µg/mL (≈ 117 µM); MIC [26]: 128 µg/mL (≈ 234 µM); MIC [27]: 128 µg/mL (≈ 234 µM); MIC [28]: 64 µg/mL (≈ 117 µM); MIC [29]: 64 µg/mL (≈ 117 µM); MIC [30]: 4 µg/mL (≈ 7.32 µM); MIC [31]: 4 µg/mL (≈ 7.32 µM); MIC [32]: 32 µg/mL (≈ 58.5 µM); MIC [33]: 32 µg/mL (≈ 58.5 µM); MIC [34]: 32 µg/mL (≈ 58.5 µM); MIC [35]: 32 µg/mL (≈ 58.5 µM)
CO/N=C(\C(=O)N[C@@H]1C(=O)N2C(C(=O)[O-])=C(C[N+]3(C)CCCC3)CS[C@H]12)c1csc(N)n1 [CEFEPIME] | 8 (≈ 16.6 µM) | 8 (≈ 16.6 µM) | 16 (≈ 33.3 µM) | 8 (≈ 16.6 µM) | 8 (≈ 16.6 µM) | 8 (≈ 16.6 µM) | 8 (≈ 16.6 µM) | 16 (≈ 33.3 µM) | 8 (≈ 16.6 µM) | 16 (≈ 33.3 µM) | 4 (≈ 8.32 µM) | 2 (≈ 4.16 µM) | 2 (≈ 4.16 µM) | 4 (≈ 8.32 µM) | 4 (≈ 8.32 µM) | 2 (≈ 4.16 µM) | 8 (≈ 16.6 µM) | 4 (≈ 8.32 µM) | 2 (≈ 4.16 µM) | 32 (≈ 66.6 µM) | MIC [21]: 32 µg/mL (≈ 66.6 µM); MIC [22]: 32 µg/mL (≈ 66.6 µM); MIC [23]: 32 µg/mL (≈ 66.6 µM); MIC [24]: 32 µg/mL (≈ 66.6 µM); MIC [25]: 32 µg/mL (≈ 66.6 µM); MIC [26]: 32 µg/mL (≈ 66.6 µM); MIC [27]: 32 µg/mL (≈ 66.6 µM); MIC [28]: 32 µg/mL (≈ 66.6 µM); MIC [29]: 32 µg/mL (≈ 66.6 µM); MIC [30]: 8 µg/mL (≈ 16.6 µM); MIC [31]: 8 µg/mL (≈ 16.6 µM); MIC [32]: 32 µg/mL (≈ 66.6 µM); MIC [33]: 16 µg/mL (≈ 33.3 µM); MIC [34]: 16 µg/mL (≈ 33.3 µM); MIC [35]: 16 µg/mL (≈ 33.3 µM)
Nc1nc(/C(=N/O)C(=O)N[C@@H]2C(=O)N3C(C(=O)O)=C(/C=C4\CCN([C@@H]5CCNC5)C4=O)CS[C@H]23)ns1 [CEFTOBIPROLE] | 8 (≈ 15 µM) | 16 (≈ 29.9 µM) | 4 (≈ 7.48 µM) | 4 (≈ 7.48 µM) | 16 (≈ 29.9 µM) | 16 (≈ 29.9 µM) | 16 (≈ 29.9 µM) | 16 (≈ 29.9 µM) | 16 (≈ 29.9 µM) | 16 (≈ 29.9 µM) | 2 (≈ 3.74 µM) | 2 (≈ 3.74 µM) | 2 (≈ 3.74 µM) | 4 (≈ 7.48 µM) | 8 (≈ 15 µM) | 2 (≈ 3.74 µM) | 4 (≈ 7.48 µM) | 4 (≈ 7.48 µM) | 2 (≈ 3.74 µM) | 4 (≈ 7.48 µM) | MIC [21]: 4 µg/mL (≈ 7.48 µM); MIC [22]: 4 µg/mL (≈ 7.48 µM); MIC [23]: 4 µg/mL (≈ 7.48 µM); MIC [24]: 4 µg/mL (≈ 7.48 µM); MIC [25]: 4 µg/mL (≈ 7.48 µM); MIC [26]: 4 µg/mL (≈ 7.48 µM); MIC [27]: 8 µg/mL (≈ 15 µM); MIC [28]: 4 µg/mL (≈ 7.48 µM); MIC [29]: 4 µg/mL (≈ 7.48 µM); MIC [30]: 8 µg/mL (≈ 15 µM); MIC [31]: 8 µg/mL (≈ 15 µM); MIC [32]: 32 µg/mL (≈ 59.9 µM); MIC [33]: 2 µg/mL (≈ 3.74 µM); MIC [34]: 4 µg/mL (≈ 7.48 µM); MIC [35]: 4 µg/mL (≈ 7.48 µM)

Reference: ChEMBL document CHEMBL1649329, “Differential selection of single-step AmpC or efflux mutants of Pseudomonas aeruginosa by using cefepime, ceftazidime, or ceftobiprole” (2010)
